Blank lines part the entries; values can stand above or below the compound they belong to.
Legend:
[1] = Inhibition of GST-tagged NSD3 (247 to 398 residues) (unknown origin) /PWWP1 (unknown origin) protein-protein interaction incubated for 60 mins by TR-FRET assay; set-up: species or system Homo sapiens
[2] = molecular target: T1, Histone-lysine N-methyltransferase NSD2 (Homo sapiens, UniProt O96028); assay: Inhibition of MMSET (unknown origin)
T1 sequence (O96028 whole entry): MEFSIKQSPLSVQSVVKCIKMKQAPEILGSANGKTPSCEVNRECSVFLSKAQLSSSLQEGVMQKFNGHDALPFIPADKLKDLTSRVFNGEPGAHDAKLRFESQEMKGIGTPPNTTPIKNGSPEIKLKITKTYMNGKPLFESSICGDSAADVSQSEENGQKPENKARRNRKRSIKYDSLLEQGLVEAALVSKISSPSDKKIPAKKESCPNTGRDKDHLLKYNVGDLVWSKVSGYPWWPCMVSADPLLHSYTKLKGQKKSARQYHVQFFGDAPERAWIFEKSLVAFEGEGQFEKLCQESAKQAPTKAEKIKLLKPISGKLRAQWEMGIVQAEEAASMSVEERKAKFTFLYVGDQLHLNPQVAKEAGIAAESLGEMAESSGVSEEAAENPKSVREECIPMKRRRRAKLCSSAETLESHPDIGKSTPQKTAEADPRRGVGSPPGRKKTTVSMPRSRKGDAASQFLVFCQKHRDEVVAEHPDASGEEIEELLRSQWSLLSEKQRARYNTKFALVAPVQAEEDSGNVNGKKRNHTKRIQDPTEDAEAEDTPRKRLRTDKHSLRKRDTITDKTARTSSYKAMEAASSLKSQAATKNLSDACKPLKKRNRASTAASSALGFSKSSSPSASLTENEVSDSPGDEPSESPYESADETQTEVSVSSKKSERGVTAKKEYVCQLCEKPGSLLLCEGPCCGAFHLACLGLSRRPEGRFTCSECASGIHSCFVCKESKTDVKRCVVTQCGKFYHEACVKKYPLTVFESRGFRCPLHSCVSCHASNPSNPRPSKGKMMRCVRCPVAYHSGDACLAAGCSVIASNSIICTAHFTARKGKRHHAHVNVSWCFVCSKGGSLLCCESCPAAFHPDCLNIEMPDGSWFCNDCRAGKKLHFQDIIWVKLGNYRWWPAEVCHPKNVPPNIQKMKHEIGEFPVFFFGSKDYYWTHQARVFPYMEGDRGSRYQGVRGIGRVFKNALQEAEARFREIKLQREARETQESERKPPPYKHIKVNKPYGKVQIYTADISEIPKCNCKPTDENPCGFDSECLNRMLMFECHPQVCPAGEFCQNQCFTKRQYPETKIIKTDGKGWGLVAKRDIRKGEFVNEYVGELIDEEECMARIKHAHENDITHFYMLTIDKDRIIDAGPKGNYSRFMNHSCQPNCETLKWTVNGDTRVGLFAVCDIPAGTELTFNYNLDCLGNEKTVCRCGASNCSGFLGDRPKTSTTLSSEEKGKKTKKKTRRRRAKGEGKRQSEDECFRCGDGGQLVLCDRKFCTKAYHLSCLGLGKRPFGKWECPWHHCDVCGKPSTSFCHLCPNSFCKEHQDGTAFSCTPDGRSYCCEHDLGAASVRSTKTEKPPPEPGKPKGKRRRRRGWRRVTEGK

[3] = molecular target: T1, Histone-lysine N-methyltransferase NSD2; assay: Inhibition of NSD2 (unknown origin)
[4] = molecular target: T1, Histone-lysine N-methyltransferase NSD2; assay: Binding affinity to human biotinylated NSD2 (208 to 368 residues) expressed in Escherichia coli BL21(DE3) by SPR assay
[5] = molecular target: T1, Histone-lysine N-methyltransferase NSD2; assay: Inhibition of NSD2 (unknown origin) using H3K36 as substrate
[6] = molecular target: Histone-lysine N-methyltransferase, H3 lysine-36 specific (Homo sapiens, UniProt Q96L73); assay: Inhibition of NSD1 (unknown origin) using H3K36 as substrate
[7] = molecular target: T2, Histone-lysine N-methyltransferase NSD3 (Homo sapiens, UniProt Q9BZ95); assay: Inhibition of NSD3 (unknown origin) using H3K36 as substrate
T2 sequence (Q9BZ95 whole entry): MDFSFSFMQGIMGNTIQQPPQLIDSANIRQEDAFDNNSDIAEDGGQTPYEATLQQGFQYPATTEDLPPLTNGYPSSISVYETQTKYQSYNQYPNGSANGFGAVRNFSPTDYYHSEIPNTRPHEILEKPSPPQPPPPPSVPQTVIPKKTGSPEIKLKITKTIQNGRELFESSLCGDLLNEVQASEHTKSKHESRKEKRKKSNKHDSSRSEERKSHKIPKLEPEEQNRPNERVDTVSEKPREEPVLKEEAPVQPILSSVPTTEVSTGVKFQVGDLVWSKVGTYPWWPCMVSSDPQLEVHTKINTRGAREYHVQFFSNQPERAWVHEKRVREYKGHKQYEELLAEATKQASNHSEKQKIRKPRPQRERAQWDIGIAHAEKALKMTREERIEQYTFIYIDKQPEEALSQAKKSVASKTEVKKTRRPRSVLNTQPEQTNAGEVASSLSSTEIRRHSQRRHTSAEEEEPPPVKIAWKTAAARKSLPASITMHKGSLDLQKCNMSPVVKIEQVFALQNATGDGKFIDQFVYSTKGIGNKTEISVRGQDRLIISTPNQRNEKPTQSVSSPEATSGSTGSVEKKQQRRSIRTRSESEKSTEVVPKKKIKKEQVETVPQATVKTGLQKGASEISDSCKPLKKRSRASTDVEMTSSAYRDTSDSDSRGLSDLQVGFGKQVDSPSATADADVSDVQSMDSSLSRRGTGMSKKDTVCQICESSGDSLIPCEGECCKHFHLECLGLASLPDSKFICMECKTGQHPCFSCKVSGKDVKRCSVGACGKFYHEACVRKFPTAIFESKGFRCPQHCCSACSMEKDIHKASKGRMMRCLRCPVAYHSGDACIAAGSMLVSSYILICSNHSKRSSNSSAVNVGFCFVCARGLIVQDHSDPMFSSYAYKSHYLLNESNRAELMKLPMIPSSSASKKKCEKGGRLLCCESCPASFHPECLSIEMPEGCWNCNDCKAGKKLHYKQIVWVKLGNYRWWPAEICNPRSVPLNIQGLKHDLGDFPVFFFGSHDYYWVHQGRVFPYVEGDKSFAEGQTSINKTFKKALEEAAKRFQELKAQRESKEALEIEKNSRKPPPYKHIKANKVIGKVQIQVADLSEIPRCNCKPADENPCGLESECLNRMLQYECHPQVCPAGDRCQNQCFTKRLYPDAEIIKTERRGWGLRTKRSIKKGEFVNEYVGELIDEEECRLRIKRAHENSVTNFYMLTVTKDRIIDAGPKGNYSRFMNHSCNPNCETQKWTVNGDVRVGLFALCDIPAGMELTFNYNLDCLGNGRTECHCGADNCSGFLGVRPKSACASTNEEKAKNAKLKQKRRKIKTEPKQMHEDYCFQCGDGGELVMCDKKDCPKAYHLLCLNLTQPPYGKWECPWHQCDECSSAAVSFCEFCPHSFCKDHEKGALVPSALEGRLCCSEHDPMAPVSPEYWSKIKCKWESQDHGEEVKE

[8] = molecular target: T1, Histone-lysine N-methyltransferase NSD2; assay: Inhibition of NSD2 in human CGTH-W-1 cells assessed as reduction in H3K36me2 level incubated for 72 hrs by ELISA; assay type: cell-based
[9] = molecular target: T1, Histone-lysine N-methyltransferase NSD2; assay: Inhibition of NSD2 in human KMS-11-Par cells assessed as reduction in H3K36me2 level incubated for 72 hrs by ELISA; assay type: cell-based
[10] = test system: PC-3; assay: Antiproliferative activity against human PC-3 cells; assay type: functional, cell-based
[11] = test system: NCI-H2228; assay: Antiproliferative activity against human NCI-H2228 cells; assay type: functional, cell-based
[12] = test system: MDA-MB-231; assay: Antiproliferative activity against human MDA-MB-231 cells; assay type: functional, cell-based
[13] = test system: SK-OV-3; assay: Antiproliferative activity against human SK-OV-3 cells; assay type: functional, cell-based
[14] = molecular target: T1, Histone-lysine N-methyltransferase NSD2; assay: Inhibition of 15N-labeled NSD2 (953 to 1240 residues) (unknown origin) expressed in Escherichia coli BL21 DE3 using H3K36 as substrate incubated for 60 mins by Alphascreen assay

Histone-lysine N-methyltransferase, H3 lysine-36 specific, sequence (Q96L73 whole entry): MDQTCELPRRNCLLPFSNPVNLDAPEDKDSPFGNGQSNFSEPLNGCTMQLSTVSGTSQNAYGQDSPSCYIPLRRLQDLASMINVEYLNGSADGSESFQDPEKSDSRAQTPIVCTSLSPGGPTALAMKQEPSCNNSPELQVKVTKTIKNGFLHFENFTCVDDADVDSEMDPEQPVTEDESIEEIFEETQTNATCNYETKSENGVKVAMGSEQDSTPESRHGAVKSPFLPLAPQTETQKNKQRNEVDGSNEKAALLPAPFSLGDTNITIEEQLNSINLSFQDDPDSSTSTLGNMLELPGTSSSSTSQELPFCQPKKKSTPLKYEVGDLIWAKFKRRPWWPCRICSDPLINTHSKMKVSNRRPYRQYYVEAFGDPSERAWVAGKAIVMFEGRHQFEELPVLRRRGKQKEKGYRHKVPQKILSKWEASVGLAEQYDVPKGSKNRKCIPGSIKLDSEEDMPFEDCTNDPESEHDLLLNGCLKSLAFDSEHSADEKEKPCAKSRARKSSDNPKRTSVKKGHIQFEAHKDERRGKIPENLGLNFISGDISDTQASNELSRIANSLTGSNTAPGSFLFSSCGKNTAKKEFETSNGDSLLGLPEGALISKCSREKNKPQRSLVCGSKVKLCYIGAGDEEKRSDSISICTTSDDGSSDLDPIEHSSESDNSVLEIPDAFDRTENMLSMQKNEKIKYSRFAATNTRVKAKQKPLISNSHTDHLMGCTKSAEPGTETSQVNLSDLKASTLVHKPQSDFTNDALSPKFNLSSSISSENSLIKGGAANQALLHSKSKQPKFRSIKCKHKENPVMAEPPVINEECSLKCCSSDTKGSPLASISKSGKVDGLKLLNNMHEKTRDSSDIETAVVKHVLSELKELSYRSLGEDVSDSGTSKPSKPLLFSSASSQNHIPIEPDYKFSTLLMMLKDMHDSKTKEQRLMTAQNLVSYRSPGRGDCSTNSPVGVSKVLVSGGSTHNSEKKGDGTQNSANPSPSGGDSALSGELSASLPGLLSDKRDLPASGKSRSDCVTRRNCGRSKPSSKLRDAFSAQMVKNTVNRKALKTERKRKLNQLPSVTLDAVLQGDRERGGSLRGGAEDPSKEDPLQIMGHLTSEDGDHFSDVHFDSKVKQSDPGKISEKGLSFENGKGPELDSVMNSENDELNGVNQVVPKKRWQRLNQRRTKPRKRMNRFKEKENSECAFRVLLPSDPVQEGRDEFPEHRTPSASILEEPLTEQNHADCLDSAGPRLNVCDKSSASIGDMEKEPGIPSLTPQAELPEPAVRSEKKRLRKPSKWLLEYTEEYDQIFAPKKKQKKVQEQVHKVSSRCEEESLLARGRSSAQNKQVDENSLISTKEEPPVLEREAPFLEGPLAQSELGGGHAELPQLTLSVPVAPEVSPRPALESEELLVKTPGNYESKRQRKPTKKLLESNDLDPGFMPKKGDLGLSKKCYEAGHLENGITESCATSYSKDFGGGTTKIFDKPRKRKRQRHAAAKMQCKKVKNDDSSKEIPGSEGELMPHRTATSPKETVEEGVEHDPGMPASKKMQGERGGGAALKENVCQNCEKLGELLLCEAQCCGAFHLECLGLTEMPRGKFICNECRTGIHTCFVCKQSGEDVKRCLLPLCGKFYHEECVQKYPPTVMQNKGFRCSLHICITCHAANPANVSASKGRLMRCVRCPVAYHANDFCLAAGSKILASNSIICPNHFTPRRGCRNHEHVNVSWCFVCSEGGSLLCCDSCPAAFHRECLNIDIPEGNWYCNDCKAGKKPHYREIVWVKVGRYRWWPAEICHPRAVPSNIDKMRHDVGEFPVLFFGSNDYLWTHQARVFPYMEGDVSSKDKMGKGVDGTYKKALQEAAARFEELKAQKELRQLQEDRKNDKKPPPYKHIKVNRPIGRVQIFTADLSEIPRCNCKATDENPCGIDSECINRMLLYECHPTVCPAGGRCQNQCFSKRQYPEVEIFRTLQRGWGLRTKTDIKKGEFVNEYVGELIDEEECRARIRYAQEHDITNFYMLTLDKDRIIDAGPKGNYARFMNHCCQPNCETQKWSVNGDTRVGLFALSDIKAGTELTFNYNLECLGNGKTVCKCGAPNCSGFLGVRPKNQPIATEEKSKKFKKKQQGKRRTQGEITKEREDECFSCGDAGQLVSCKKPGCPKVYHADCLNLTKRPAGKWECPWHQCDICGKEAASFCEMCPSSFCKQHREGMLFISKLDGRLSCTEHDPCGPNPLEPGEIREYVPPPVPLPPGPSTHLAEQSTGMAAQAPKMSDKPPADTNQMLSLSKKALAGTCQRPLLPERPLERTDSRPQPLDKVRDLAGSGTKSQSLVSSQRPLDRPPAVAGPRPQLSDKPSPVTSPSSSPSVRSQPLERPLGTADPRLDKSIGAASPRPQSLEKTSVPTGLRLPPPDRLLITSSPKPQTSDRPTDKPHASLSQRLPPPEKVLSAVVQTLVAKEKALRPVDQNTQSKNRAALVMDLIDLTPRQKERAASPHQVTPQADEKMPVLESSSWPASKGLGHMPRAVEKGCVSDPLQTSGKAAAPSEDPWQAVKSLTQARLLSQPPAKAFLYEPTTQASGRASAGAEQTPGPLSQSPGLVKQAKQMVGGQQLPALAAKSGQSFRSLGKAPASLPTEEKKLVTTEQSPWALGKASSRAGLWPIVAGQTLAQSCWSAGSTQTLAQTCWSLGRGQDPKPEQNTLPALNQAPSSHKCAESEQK

IC50 [1]: 0.203 µM
Structure (SMILES): Cc1cc(CN)cc(C)c1-c1ncn(C)c1-c1ccnc2cc(F)ccc12

IC50 [5]: 111 µM | IC50 [6]: 418 µM | IC50 [7]: 60 µM
Structure (SMILES): O=C(NCCCN(Cc1nc2sc3c(c2c(=O)[nH]1)CCCC3)Cc1nc2sc3c(c2c(=O)[nH]1)CCCC3)c1cc2ccccc2c(=O)o1

IC50 [3]: 7.3 µM
Structure (SMILES): CC(=O)c1ccc(-c2cc(NC(=O)Nc3ccc4nnsc4c3)cc(C(F)(F)F)c2)s1

IC50 [8]: 0.018 µM | IC50 [9]: 0.041 µM
Structure (SMILES): Nc1ncnc2c1ncn2Cc1cc(-c2ccc(F)c(F)c2)ncc1N1CCC[C@](N)(c2ccccn2)C1

Kd [4]: > 20 µM
Structure (SMILES): CC(C)N(Cc1ccc(C(=O)Nc2ccncn2)cc1)C(=O)c1ccc2c(c1)OCC(=O)N2

IC50 [8]: 0.04 µM | IC50 [9]: 0.034 µM
Structure (SMILES): CC[C@H](C)C(=O)[C@@]1(N)CCCN(c2cnc(-c3ccc(F)c(F)c3)cc2Cn2cnc3c(N)ncnc32)C1

IC50 [8]: 0.012 µM | IC50 [9]: 0.078 µM
Structure (SMILES): CNC(=O)[C@@]1(N)CCCN(c2cnc(-c3cccc(F)c3)cc2Cn2cnc3c(N)ncnc32)C1

IC50 [14]: 1.8 µM
Structure (SMILES): CC(C)CN[C@@H](CC[C@H](N)C(=O)O)C[C@H]1O[C@@H](n2cnc3c(N)ncnc32)[C@H](O)[C@@H]1O

IC50 [14]: 46 µM
Structure (SMILES): Nc1ncnc2c1ncn2[C@@H]1O[C@H](C[C@@H](N)CC[C@H](N)C(=O)O)[C@@H](O)[C@H]1O [SINEFUNGIN]

Continued, compound first:

Structure (SMILES): NNc1nc2ccccc2nc1S
IC50 [2]: < 3 µM

Structure (SMILES): N#Cc1cccc(NC(=O)Nc2ccc3nnsc3c2)c1
IC50 [3]: 7.5 µM

Structure (SMILES): O=C1COc2cc(C(=O)N(Cc3cccs3)C3CC3)ccc2N1
Kd [4]: 0.349 µM

Structure (SMILES): C=CC(=O)Nc1cc(NC(=O)Nc2ccc3nnsc3c2)cc(C(=O)OC)c1
IC50 [3]: 8.1 µM

Structure (SMILES): O=C(Nc1cccc([N+](=O)[O-])c1)Nc1ccc2nnsc2c1
IC50 [3]: 4.8 µM

Structure (SMILES): COC(=O)c1cc(NC(=O)Nc2ccc3nnsc3c2)cc(C(=O)OC)c1
IC50 [3]: 3.7 µM | IC50 [10]: 4.2 µM | IC50 [11]: 6.8 µM | IC50 [12]: 5.1 µM | IC50 [13]: 2.6 µM

Structure (SMILES): Cn1nnc2ccc(NC(=O)Nc3cccc([N+](=O)[O-])c3)cc21
IC50 [3]: 8.3 µM
